Test: Antiinflammatory activity in human neutrophils assessed as inhibition of fMLP-indcued superoxide production after 5 mins
Format: functional, cell-based
Settings: Neutrophil

Row | SMILES | IC50 [µM]
1 | COc1c(O)cc2c(oc3c(OC)ccc(OC)c32)c1OC | 7.61
2 | COc1c(O)cc2c(oc3cccc(OC)c32)c1OC | 27.4
3 | COc1c(O)cc2c(oc3c(OC)cccc32)c1OC | 27.4
4 | COc1c2c(c3c(oc4c(OC)cccc43)c1OC)OCO2 | > 100
5 | CC(C)Cc1ccc(C(C)C(=O)O)cc1 (stereo not drawn) [IBUPROFEN] | 27.5

The remaining lines, values ahead:

Row | IC50 [µM] | SMILES
6 | 34.1 | COc1cc(O)cc(-c2ccccc2)c1
7 | 2.04 | COc1cc(O)cc(-c2ccccc2O)c1
8 | 8.36 | COc1cc(O)cc(-c2ccccc2OC)c1

Source: ChEMBL document CHEMBL1268851, “Anti-inflammatory Biphenyls and Dibenzofurans from Rhaphiolepis indica” (J Nat Prod, 2010)
